Patent US11945822B2, “Pyrazolo-triazine and/or pyrazolo-pxrimidine derivatives as selective inhibitor of cyclin dependent kinase” (QURIENT CO., LTD., priority 2018, dated 2024)

Tests used:
[1] = target: T1, CDK1/Cyclin B (Homo sapiens, UniProt P06493); experiment: Enzymatic assay for CDK1 (FRET based LANCE Ultra kinase assay); assay type: biochemical; settings: read-out: CDK1 enzymatic activity (IC50 range)
T1 construct: purchased Invitrogen PR4768C
Procedure: (§1) Enzymatic Binding Assay Protocol for CDK1, CDK2, CDK5 and CDK7
(§2) Inhibition activity of the respective compound on CDK kinase under Km value of ATP was tested in FRET based The LANCE® Ultra kinase assay (Perkin Elmer), which uses a ULight™-labeled peptide substrate and an appropriate Europium-labeled anti-phospho-antibody. Test compounds were made with DMSO solutions, and then 4-fold serial dilutions for 8 doses were prepared using automated liquid handler (POD810, LABCYTE) and 80 nL/well of diluted compound solutions were added into the 384-well plates (Greiner, Cat #784075). And then 68 nM of ULight-MBP peptide (Perkin Elmer, Cat #TRF0109-M) and 5 ul/well of ATP (Sigma, Cat #A7699) were added to the plate. After 1 min centrifugation at 1000 rpm, Purified CDKs/Cyclin complex were added following concentrations respectively. 24 uM for CDK1/Cyclin B (Invitrogen, Cat #PR4768C), 22 uM for CDK2/Cyclin A (Invitrogen, Cat #PV6290), 10 uM for CDK5/p25 (Invitrogen, Cat #PR8543B) and […] for CDK7/Cyclin H/MNAT1 (Invitrogen, Cat #PR6749B) were added to the each corresponding plate for CDK1, CDK2, CDK5 and CDK7. Incubate at 23° C. for 60 min and then Eu-labeled anti-phospho-Myelin Basic Protein (PE, Cat #TRF0201-M) and EDTA (Invitrogen, Cat #15575038) mixture in Lance Detection Buffer (Perkin Elmer, Cat #CR97100) was added in each well. After additional incubation at 23° C. for 60 min, test articles were measured the fluorescence using Envision leader (Perkin Elmer, USA) [Laser as excitation light; […] as the first and the second emission filter]. Data was analyzed using XL Fit software.

[2] = target: T2, CDK7/Cyclin H/MNAT1 (Homo sapiens, UniProt P50613); experiment: Enzymatic assay for CDK7 (FRET based LANCE Ultra kinase assay); assay type: biochemical; settings: for IC50: read-out: CDK7 enzymatic activity (IC50 range)
T2 construct: purchased Invitrogen PR6749B
Procedure: as §1
Inhibition activity of the respective compound on CDK kinase under Km value of ATP was tested in FRET based The LANCE® Ultra kinase assay (Perkin Elmer), which uses a ULight™-labeled peptide substrate and an appropriate Europium-labeled anti-phospho-antibody. […] After 1 min centrifugation at 1000 rpm, Purified CDKs/Cyclin complex were added following concentrations respectively. […] Data was analyzed using XL Fit software.

[3] = test system: MV4-11; experiment: Cellular MV4-11 viability assay (CellTiter-Glo, 72 hours); assay type: cell-based; settings: Homo sapiens
Procedure: (§3) All cell lines were routinely tested for mycoplasma.
(§4) The effect of the CDK7 inhibitor to inhibit the growth of target cancer cells was evaluated through the 72 hours time period of viability assay. Briefly, the candidate cell line ware plated in 96 well plate at the following density of cells respectively. […] DMSO solvent without compound served as a control and final DMSO concentration less than 0.1%. After 72 hours of incubation at 37° C., 5% CO2 incubator, cells were analyzed for the viability using the CellTiter-Glo Luminescent Cell Viability Assay (Promega, Cat #G7570). All viability assays were performed in duplicate and Luminescence was read using an Envision (Perkin Elmer, USA). Data was analyzed using XLfit software.

[4] = target: T3, CDK2/Cyclin A (Homo sapiens, UniProt P24941); experiment: Enzymatic assay for CDK2 (FRET based LANCE Ultra kinase assay); assay type: biochemical; settings: read-out: CDK2 enzymatic activity (IC50 range)
T3 construct: purchased Invitrogen PV6290
Procedure: as §1, §2

[5] = target: T4, CDK5/p25 (Homo sapiens, UniProt Q00535); experiment: Enzymatic assay for CDK5 (FRET based LANCE Ultra kinase assay); assay type: biochemical; settings: read-out: CDK5 enzymatic activity (IC50 range)
T4 construct: purchased Invitrogen PR8543B
Procedure: as §1, §2

[6] = test system: HCT116; experiment: Cellular HCT116 viability assay (CellTiter-Glo, 72 hours); assay type: cell-based; settings: Homo sapiens, HCT-116
Procedure: as §3, §4

[7] = test system: H460; experiment: Cellular H460 viability assay (CellTiter-Glo, 72 hours); assay type: cell-based; settings: Homo sapiens, NCI-H460
Procedure: as §3, §4

T1 sequence (P06493 whole entry): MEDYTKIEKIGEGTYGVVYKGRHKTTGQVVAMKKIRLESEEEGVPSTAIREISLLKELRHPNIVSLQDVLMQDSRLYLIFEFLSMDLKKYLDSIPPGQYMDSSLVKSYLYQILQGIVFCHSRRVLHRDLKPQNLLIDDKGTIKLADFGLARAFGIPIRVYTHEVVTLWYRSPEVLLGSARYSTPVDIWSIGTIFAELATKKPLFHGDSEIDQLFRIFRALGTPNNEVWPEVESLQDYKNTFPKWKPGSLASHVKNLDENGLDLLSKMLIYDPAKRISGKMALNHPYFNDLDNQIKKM
T1 sequence (P14635 whole entry partner): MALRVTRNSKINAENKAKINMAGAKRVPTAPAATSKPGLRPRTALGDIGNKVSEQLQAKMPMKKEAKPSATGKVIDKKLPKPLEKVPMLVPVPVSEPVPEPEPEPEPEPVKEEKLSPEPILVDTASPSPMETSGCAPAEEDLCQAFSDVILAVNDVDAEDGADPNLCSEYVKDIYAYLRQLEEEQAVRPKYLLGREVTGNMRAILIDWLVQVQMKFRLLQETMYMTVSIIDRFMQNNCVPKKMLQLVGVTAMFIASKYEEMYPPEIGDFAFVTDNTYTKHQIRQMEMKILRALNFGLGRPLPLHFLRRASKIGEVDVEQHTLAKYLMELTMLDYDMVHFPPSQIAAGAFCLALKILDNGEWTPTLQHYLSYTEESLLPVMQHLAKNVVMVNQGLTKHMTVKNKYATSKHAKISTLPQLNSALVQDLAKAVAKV
T4 sequence (Q00535 whole entry): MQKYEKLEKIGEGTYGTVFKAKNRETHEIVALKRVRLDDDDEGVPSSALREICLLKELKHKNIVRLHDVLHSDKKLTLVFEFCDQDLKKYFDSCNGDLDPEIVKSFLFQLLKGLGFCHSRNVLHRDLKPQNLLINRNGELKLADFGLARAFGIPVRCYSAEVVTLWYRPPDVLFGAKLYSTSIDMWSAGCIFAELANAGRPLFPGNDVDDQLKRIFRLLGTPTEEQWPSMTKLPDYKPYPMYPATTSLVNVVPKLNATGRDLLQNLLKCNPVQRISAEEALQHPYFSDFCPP
T4 sequence (Q15078 99-307 partner limits assumed): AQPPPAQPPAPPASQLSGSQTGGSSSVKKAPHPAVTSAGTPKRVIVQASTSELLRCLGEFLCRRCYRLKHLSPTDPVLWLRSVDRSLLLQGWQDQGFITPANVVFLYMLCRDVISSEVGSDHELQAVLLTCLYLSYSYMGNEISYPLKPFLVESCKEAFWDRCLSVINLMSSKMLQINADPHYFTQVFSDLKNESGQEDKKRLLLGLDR
T2 sequence (P50613 whole entry): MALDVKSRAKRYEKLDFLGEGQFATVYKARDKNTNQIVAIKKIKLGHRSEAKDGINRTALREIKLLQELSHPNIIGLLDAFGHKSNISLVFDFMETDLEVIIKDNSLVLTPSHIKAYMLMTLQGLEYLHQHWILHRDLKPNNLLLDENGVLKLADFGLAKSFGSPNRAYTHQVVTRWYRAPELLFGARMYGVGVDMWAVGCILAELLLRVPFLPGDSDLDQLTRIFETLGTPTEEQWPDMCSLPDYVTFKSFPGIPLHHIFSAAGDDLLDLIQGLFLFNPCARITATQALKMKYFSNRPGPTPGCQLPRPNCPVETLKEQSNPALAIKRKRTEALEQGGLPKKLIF
T2 sequence (P51946 whole entry partner): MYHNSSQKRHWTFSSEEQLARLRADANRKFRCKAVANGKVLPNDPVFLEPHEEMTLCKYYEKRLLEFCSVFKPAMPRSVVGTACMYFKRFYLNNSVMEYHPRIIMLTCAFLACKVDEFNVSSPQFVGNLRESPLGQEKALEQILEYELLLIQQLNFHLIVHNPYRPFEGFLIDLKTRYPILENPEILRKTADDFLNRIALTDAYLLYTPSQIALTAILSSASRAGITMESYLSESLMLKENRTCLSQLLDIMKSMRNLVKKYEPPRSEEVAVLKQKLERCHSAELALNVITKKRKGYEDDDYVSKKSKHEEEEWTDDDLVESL
T2 sequence (P51948 whole entry partner): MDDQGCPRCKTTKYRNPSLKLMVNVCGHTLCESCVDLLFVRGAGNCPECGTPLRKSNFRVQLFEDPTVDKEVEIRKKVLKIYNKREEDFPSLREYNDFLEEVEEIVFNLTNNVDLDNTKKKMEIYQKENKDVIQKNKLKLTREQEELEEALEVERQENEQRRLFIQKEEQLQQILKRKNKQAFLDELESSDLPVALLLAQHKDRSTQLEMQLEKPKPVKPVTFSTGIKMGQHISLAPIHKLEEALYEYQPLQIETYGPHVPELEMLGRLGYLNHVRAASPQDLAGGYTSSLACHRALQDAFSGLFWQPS

Compound	IC50 [1] [µM]	CDK1/CDK7: Selectivity of CDK7 inhibition over CDK1 inhibition [2]	IC50 [2] [µM]	IC50 [3] [µM]	IC50 [4] [µM]	IC50 [5] [µM]	IC50 [6] [µM]	IC50 [7] [µM]	CDK2/CDK7: Selectivity of CDK7 inhibition over CDK2 inhibition [2]	CDK5/CDK7: Selectivity of CDK7 inhibition over CDK5 inhibition [2]
CC(C)c1cnn2c(NCc3ccccc3-n3cccn3)nc(Nc3cccc(OC4CCNC4)c3)nc12 (racemic) [Compound 164]	> 1	B (B=less than 200 fold, but greater than 20 fold)	< 0.1	1 to 10	> 1	> 1	–	–	B (B=less than 200 fold, but greater than 20 fold)	B (B=less than 200 fold, but greater than 20 fold)
CC(C)c1cnn2c(NC(C)c3ccccc3-n3ccc(CO)n3)nc(N3CCC(N)CC3)nc12 (racemic) [Compound 220]	> 1	A (A=greater than 200 fold)	< 0.1	< 1	> 1	> 1	< 1	< 1	A (A=greater than 200 fold)	A (A=greater than 200 fold)
CC(C)c1cnn2c(NCc3ccccc3-c3ccc4ccccc4n3)nc(NCC(O)CCN)nc12 (racemic) [Compound 240]	> 1	A (A=greater than 200 fold)	< 0.1	< 1	> 1	> 1	< 1	< 1	A (A=greater than 200 fold)	A (A=greater than 200 fold)
CC(C)c1cnn2c(NCc3cccc4ccncc34)nc(N3CCC(N)CC3)nc12 [Compound 31]	0.1 to 1	B (B=less than 200 fold, but greater than 20 fold)	< 0.1	–	< 0.1	< 0.1	< 1	< 1	B (B=less than 200 fold, but greater than 20 fold)	C (C=less than 20 fold)
CC(C)C(=O)N1CCc2nn(-c3ccccc3CNc3nc(N4CCC(N)CC4)nc4c(C(C)C)cnn34)cc2C1 [Compound 148]	> 1	A (A=greater than 200 fold)	< 0.1	< 1	0.1 to 1	< 0.1	< 1	< 1	A (A=greater than 200 fold)	B (B=less than 200 fold, but greater than 20 fold)
CC(C)c1cnn2c(NCc3ccccc3-n3cc(C(=O)NC4CCOCC4)cn3)nc(N3CCC(N)CC3)nc12 [Compound 155]	0.1 to 1	A (A=greater than 200 fold)	< 0.1	< 1	0.1 to 1	< 0.1	< 1	< 1	B (B=less than 200 fold, but greater than 20 fold)	B (B=less than 200 fold, but greater than 20 fold)
CC(C)c1cnn2c(NCc3ccccc3-n3cc4cc(NS(C)(=O)=O)ccc4n3)nc(N3CCC(N)CC3)nc12 [Compound 158]	0.1 to 1	B (B=less than 200 fold, but greater than 20 fold)	< 0.1	< 1	0.1 to 1	< 0.1	< 1	–	B (B=less than 200 fold, but greater than 20 fold)	B (B=less than 200 fold, but greater than 20 fold)
CC(C)c1cnn2c(NCc3ccccc3-n3cccn3)nc(-c3cccc(C4CCNCC4)c3)nc12 [Compound 165]	> 1	A (A=greater than 200 fold)	< 0.1	< 1	> 1	0.1 to 1	–	< 1	B (B=less than 200 fold, but greater than 20 fold)	B (B=less than 200 fold, but greater than 20 fold)
CC(C)c1cnn2c(NCc3ccccc3-n3cccn3)nc(-c3cccc(N4CCNCC4)c3)nc12 [Compound 167]	> 1	A (A=greater than 200 fold)	< 0.1	< 1	> 1	0.1 to 1	–	< 1	B (B=less than 200 fold, but greater than 20 fold)	B (B=less than 200 fold, but greater than 20 fold)
Cc1ccc(CNc2nc(N3CCC(N)CC3)nc3c(C(C)C)cnn23)c(-c2cc3ccccc3[nH]2)c1 [Compound 191]	0.1 to 1	B (B=less than 200 fold, but greater than 20 fold)	< 0.1	< 1	0.1 to 1	0.1 to 1	–	< 1	B (B=less than 200 fold, but greater than 20 fold)	B (B=less than 200 fold, but greater than 20 fold)

More lines, main results first:

IC50 [1] [µM]	CDK1/CDK7: Selectivity of CDK7 inhibition over CDK1 inhibition [2]	IC50 [2] [µM]	IC50 [3] [µM]	IC50 [4] [µM]	IC50 [5] [µM]	IC50 [6] [µM]	IC50 [7] [µM]	Compound	CDK2/CDK7: Selectivity of CDK7 inhibition over CDK2 inhibition [2]	CDK5/CDK7: Selectivity of CDK7 inhibition over CDK5 inhibition [2]
0.1 to 1	A (A=greater than 200 fold)	< 0.1	< 1	0.1 to 1	0.1 to 1	< 1	< 1	CNC(=O)c1cccc(-c2cnn(-c3ccccc3CNc3nc(N4CCC(N)CC4)nc4c(C(C)C)cnn34)c2)c1 [Compound 151]	B (B=less than 200 fold, but greater than 20 fold)	B (B=less than 200 fold, but greater than 20 fold)
> 1	A (A=greater than 200 fold)	< 0.1	< 1	0.1 to 1	< 0.1	< 1	< 1	CC(C)c1cnn2c(NCc3ccccc3-n3cc(C(=O)Nc4ccccc4)cn3)nc(N3CCC(N)CC3)nc12 [Compound 152]	B (B=less than 200 fold, but greater than 20 fold)	B (B=less than 200 fold, but greater than 20 fold)
> 1	A (A=greater than 200 fold)	< 0.1	< 1	0.1 to 1	0.1 to 1	< 1	–	CC(C)c1cnn2c(NCc3ccccc3-n3cc4cc(O)ccc4n3)nc(N3CCC(N)CC3)nc12 [Compound 159]	B (B=less than 200 fold, but greater than 20 fold)	B (B=less than 200 fold, but greater than 20 fold)
> 1	A (A=greater than 200 fold)	< 0.1	1 to 10	> 1	> 1	–	1 to 10	Cc1ccc(-c2cc3ccccc3[nH]2)c(CNc2nc(N3CCC(N)CC3)nc3c(C(C)C)cnn23)c1 [Compound 190]	A (A=greater than 200 fold)	B (B=less than 200 fold, but greater than 20 fold)
